Test results published in BigSolDB 2.1.

CCCCS(=O)(=O)N[C@@H](Cc1ccc(OCCCCC2CCNCC2)cc1)C(=O)O
solubility (mole fraction)
Conditions	278.15 K	283.15 K	288.15 K	293.15 K	298.15 K	303.15 K	308.15 K	313.15 K	318.15 K	323.15 K
in ethanol	0.000129	0.000156	0.000183	0.000216	0.00025	0.000288	0.000329	0.000373	0.000427	0.00049
in ethylene glycol	4.7e-05	5.7e-05	6.77e-05	8.02e-05	9.46e-05	0.000109	0.000125	0.000142	0.00016	0.000181
in isopropanol	7.48e-05	9.32e-05	0.000108	0.00013	0.000153	0.000176	0.0002	0.00023	0.000265	0.000301
in methanol	0.000306	0.000375	0.000443	0.00052	0.000617	0.00071	0.000836	0.000957	0.0011	0.00125
in water	9.32e-07	1.1e-06	1.32e-06	1.55e-06	1.83e-06	2.08e-06	2.42e-06	2.75e-06	3.14e-06	3.59e-06
